{
  "source": "patent US7022699B2",
  "about": "“Cyclohexenyl phenyl diazepines vasopressin and oxytocin receptor modulators” (Wyeth, priority 2001, dated 2006)",
  "data": [
    {"target": "T1, human vasopressin V2 receptor subtype (Homo sapiens, UniProt P30518)", "T1 construct": "host or cells: CHO cells, stably transfected (pZeoSV vector); membranes", "T1 sequence (P30518 whole entry)": "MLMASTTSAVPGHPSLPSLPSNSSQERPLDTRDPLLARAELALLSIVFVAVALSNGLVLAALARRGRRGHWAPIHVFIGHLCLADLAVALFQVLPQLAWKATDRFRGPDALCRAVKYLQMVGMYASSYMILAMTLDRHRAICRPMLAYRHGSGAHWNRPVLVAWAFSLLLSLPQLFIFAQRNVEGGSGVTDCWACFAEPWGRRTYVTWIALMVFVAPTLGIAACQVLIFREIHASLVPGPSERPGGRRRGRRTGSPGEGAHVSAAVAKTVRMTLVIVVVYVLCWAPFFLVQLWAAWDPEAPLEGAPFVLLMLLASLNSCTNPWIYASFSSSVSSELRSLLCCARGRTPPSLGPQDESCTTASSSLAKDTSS", "assay": "Vasopressin binding in CHO cell membranes expressing human vasopressin V2 subtype receptors ([3H]arginine vasopressin)", "conditions": "100 nM, values without parentheses", "description": "Vasopressin Binding in Chinese Hamster Ovary Cell Membranes Expressing Human Vasopressin V2 Subtype Receptors\nChinese Hamster Ovary (CHO) cells stably transfected with the human V2 subtype receptors were obtained from M. Thibonnier, Case Western Reserve University School of Medicine, Cleveland, Ohio.\nA. Passaging and Amplification of Cells:\nCHO cells transfected with the human vasopressin V2 subtype receptors obtained from M. Thibonnier (pZeoSV vector) are allowed to grow to confluency (approx. >90%) in T-150 flasks under sterile conditions, in a cell culture medium of F-12 Nutrient Mixture (HAM) with L-glutamine (Gibco Cat. #11765-054) containing 15 mM HEPES (Gibco Cat. #15630-080), 1% antibiotic/antimycotic (add 5 mL 100×, Gibco Cat. #15240-062 per 500 mL F-12), 250 μg/mL Zeocin (add 1.25 mL of 100 mg/mL Invitrogen R-250-01 per 500 mL F-12) and 10% Fetal Bovine Serum (Qualified, heat inactivated, Gibco Cat. #16140-063). The medium is removed by aspiration and the cells washed with 10 mL of Hank's Balanced Salt solution (Gibco Cat. #14175-095). The salt solution is removed by aspiration and the cells trypsinized with 5 mL of trypsin-EDTA (0.05% trypsin, 0.53 mM EDTA-4Na, Gibco Cat. #25300-070) for 1 min. The trypsin is removed by aspiration and the cells dislodged by tapping. Cell Culture medium (e.g. 30 mL for 1:30 split) is immediately added and mixed well to inactivate trypsin. 1 mL of detached cells is added to new culture flasks containing fresh Cell Culture medium (e.g. into 25 mL per T-150 flask), and mixed gently. The cells are incubated at 37° C. in 5% CO2. The medium is changed at 3 to 4 day interval (or as appropriate). The cells grow to confluency (approx. >75%–95%) within 7–8 days. All steps are done under sterile conditions. B. Membrane Preparation: The cells are washed twice gently with Hank's Balanced Salt solution (e.g. use 10 mL per T-150 flask). The excess solution is removed and the cells bathed for 15–30 min. in an enzyme-free Cell Dissociation Buffer (e.g. use 8 mL Hank's Based, Gibco Cat. # 13150-016 per T-150 flask) until cells are loosened. The contents are transferred to centrifuge tubes (50 mL size) kept in ice bath. All subsequent steps are done at 4° C. The tubes are centrifuged at 300×g for 15 min (1380 rpm on SORVAL, Model RT6000D, using rotor for 50 mL tubes). The supernatant is discarded and the cells suspended in homogeneizing buffer (10 mM Tris-HCl containing 0.25 M sucrose and 1 mM EDTA, pH 7.4) ensuring that the volume of the buffer is about ten times the volume of the cell pellet. The cells are pooled into a centrifuge tube (50 mL) and homogenized with Polytron at setting 6 for 10 sec. The homogenate is transferred into a Potter-Elvjehm homogeneizer and homogenized with 3 strokes. The homogenate is centrifuged at 1500×g for 60 min at 4° C. (3100 rpm using SORVAL, model RT6000D, using rotor for 50 mL tubes). The pellet is discarded. The supernatant is centrifuged at 100,000×g for 60 min. at 4° C. (Beckman L8-80M ultracentrifuge; spin at 37,500 rpm with rotor type 70 Ti for 50 mL tubes; 38,000 rpm with type 80Ti for 15 mL tubes; or 35,800 rpm with rotor type 45Ti). The supernantant is discarded and the pellet suspended in 3 to 4 mL of Tris buffer (50 mM TRIS-HCl, pH 7.4). The protein content is estimated by the Bradford or Lowry method. The volume of the membrane suspension is adjusted with the membrane buffer (50 mM Tris-HCl containing 0.1% BSA and 0.1 mM PMSF) to give 3.0 mg/mL (or as appropriate) of protein. The membranes are aliquoted and stored at −70° C. C. Radioligand Binding Assay:\nIn wells of a 96-well format microtiter plate, is added 90, 110 or 130 μL (to make up a final volume of 200 μL) of assay buffer containing 50 mM of Tris-HCl (pH 7.4), […], 1 mg % aprotinin, 1 mg % leupeptin, 2 mg % 1,10-phenanthroline, 10 mg % trypsin inhibitor, and 0.1 mM PMSF. The inhibitors are added on the day of the experiment. […]", "units": {"inhibition at 0.1 µM": "%"}, "values": [
      {"smiles": "O=C1C=C(c2ccc(C(=O)N3Cc4cccn4Cc4ccccc43)cc2)CCC1", "note": "[Example 24, 3-[4-(10,11-Dihydro-5H-pyrrolo[2,1-c][1,4]benzodiazepine-10-carbonyl)-phenyl]-cyclohex-2-en-1-one]", "inhibition at 0.1 µM": 29},
      {"smiles": "O=C(c1ccc(C2=CC(O)CCC2)cc1)N1Cc2cccn2Cc2ccccc21", "note": "(stereo not shown) [Example 25, (10,11-Dihydro-5H-pyrrolo[2,1-c][1,4]benzodiazepin-10-yl)-[4-(3-hydroxy-cyclohex-1-en-1-yl)-phenyl]-methanone]", "inhibition at 0.1 µM": 39},
      {"smiles": "CC1=C(c2ccc(C(=O)N3Cc4cccn4Cc4ccccc43)cc2)CCCC1=O", "note": "[Example 26, 3-[4-(10,11-Dihydro-5H-pyrrolo[2,1-c][1,4]benzodiazepine-10-carbonyl)-phenyl]-2-methyl-cyclohex-2-en-1-one]", "inhibition at 0.1 µM": 58},
      {"smiles": "CC1=C(c2ccc(C(=O)N3Cc4cccn4Cc4ccccc43)cc2)CCCC1O", "note": "(stereo not shown) [Example 27, (10,11-Dihydro-5H-pyrrolo[2,1-c][1,4]benzodiazepin-10-yl)-[4-(3-hydroxy-2-methyl-cyclohex-1-en-1-yl)-phenyl]-methanone]", "inhibition at 0.1 µM": 58},
      {"smiles": "Cc1cc(C(=O)N2Cc3cccn3Cc3ccccc32)ccc1C1=CCCCC1C", "note": "(stereo not shown) [Example 29, (10,11-Dihydro-5H-pyrrolo[2,1-c][1,4]benzodiazepin-10-yl)-[3-methyl-4-(6-methyl-cyclohex-1-en-1-yl)-phenyl]-methanone]", "inhibition at 0.1 µM": 13},
      {"smiles": "Cc1cc(C(=O)N2Cc3cccn3Cc3ccccc32)ccc1C1=CCCCC1(C)C", "note": "[Example 30, (10,11-Dihydro-5H-pyrrolo[2,1-c][1,4]benzodiazepin-10-yl)-[4-(6,6-dimethyl-cyclohex-1-en-1-yl)-3-methyl-phenyl]-methanone]", "inhibition at 0.1 µM": 13},
      {"smiles": "CC1=C(c2ccc(C(=O)N3Cc4cccn4Cc4ccccc43)cc2C)C(C)CCC1", "note": "(stereo not shown) [Example 33, (10,11-Dihydro-5H-pyrrolo[2,1-c][1,4]benzodiazepin-10-yl)-[4-(2,6-dimethyl-cyclohex-1-en-1-yl)-3-methyl-phenyl]-methanone]", "inhibition at 0.1 µM": 0},
      {"smiles": "Cc1cc(C(=O)N2Cc3cccn3Cc3ccccc32)ccc1C1=CCCCC1C(C)(C)C", "note": "(stereo not shown) [Example 34, (10,11-Dihydro-5H-pyrrolo[2,1-c][1,4]benzodiazepin-10-yl)-[4-(6-tert-butyl-cyclohex-1-en-1-yl)-3-methyl-phenyl]-methanone]", "inhibition at 0.1 µM": 4},
      {"smiles": "Cc1cc(C(=O)N2Cc3cccn3Cc3ccccc32)ccc1C1=CCC2CCC1C2", "note": "(stereo not shown) [Example 35, (10,11-Dihydro-5H-pyrrolo[2,1-c][1,4]benzodiazepin-10-yl)-(4-bicyclo[3.2.1]oct-2-en-2-yl-3-methyl-phenyl)-methanone]", "inhibition at 0.1 µM": 18},
      {"smiles": "Cc1cc(C(=O)N2Cc3cccn3Cc3ccccc32)ccc1C1=CCC2CC1C2(C)C", "note": "(stereo not shown) [Example 36, (10,11-Dihydro-5H-pyrrolo[2,1-c][1,4]benzodiazepin-10-yl)-[4-(6,6-dimethyl-bicyclo[3.1.1]hept-2-en-2-yl)-3-methyl-phenyl]-methanone]", "inhibition at 0.1 µM": 3},
      {"smiles": "Cc1cc(C(=O)N2Cc3cccn3Cc3ccccc32)ccc1C1=CC(C)(C)CC(C)(C)C1", "note": "[Example 37, (10,11-Dihydro-5H-pyrrolo[2,1-c][1,4]benzodiazepin-10-yl)-[3-methyl-4-(3,3,5,5-tetramethyl-cyclohex-1-en-1-yl)-phenyl]-methanone]", "inhibition at 0.1 µM": 20},
      {"smiles": "COc1cccc(C2=C(c3ccc(C(=O)N4Cc5cccn5Cc5ccccc54)cc3C)CCCC2)c1", "note": "[Example 38, (10,11-Dihydro-5H-pyrrolo[2,1-c][1,4]benzodiazepin-10-yl)-{4-[2-(3-methoxy-phenyl)-cyclohex-1-en-1-yl]-3-methyl-phenyl}-methanone]", "inhibition at 0.1 µM": -9},
      {"smiles": "Cc1cc(C(=O)N2Cc3cccn3Cc3ccccc32)ccc1C1=CC(=O)CCC1", "note": "[Example 39, 3-[4-(10,11-Dihydro-5H-pyrrolo[2,1-c][1,4]benzodiazepine-10-carbonyl)-2-methyl-phenyl]-cyclohex-2-en-1-one]", "inhibition at 0.1 µM": 38},
      {"smiles": "Cc1cc(C(=O)N2Cc3cccn3Cc3ccccc32)ccc1C1=CC(O)CCC1", "note": "(stereo not shown) [Example 40, (10,11-Dihydro-5H-pyrrolo[2,1-c][1,4]benzodiazepin-10-yl)-[4-(3-hydroxy-cyclohex-1-en-1-yl)-3-methyl-phenyl]-methanone]", "inhibition at 0.1 µM": 48},
      {"smiles": "CO[C@@H]1CCCC(c2ccc(C(=O)N3Cc4cccn4Cc4ccccc43)cc2C)=C1C", "note": "[Example 44, 10-{4-[(3R)-3-Methoxy-2-methylcyclohex-1-en-1-yl]-3-methylbenzoyl}-10,11-dihydro-5H-pyrrolo[2,1-c][1,4]benzodiazepine]", "inhibition at 0.1 µM": 86},
      {"smiles": "CC1=C(c2ccc(C(=O)N3Cc4cccn4Cc4ccccc43)cc2C)CCCC1N", "note": "(stereo not shown) [Example 45, [4-(3-Amino-2-methyl-cyclohex-1-en-1-yl)-3-methyl-phenyl]-(10,11-dihydro-5H-pyrrolo[2,1-c][1,4]benzodiazepin-10-yl)-methanone]", "inhibition at 0.1 µM": 27}
    ]}
  ]
}
